{"source": "patent US10723998B2", "about": "“Application of ethyl p-methoxycinnamate and derivatives thereof in maintaining self-renewal and pluripotency of stem cells” (NORTHEAST NORMAL UNIVERSITY, priority 2015, dated 2020)", "key": {"[1]": {"system": "mouse teratoma cells P19", "assay": "Formation of microspheres of suspendedly cultured stem cells (soft agar, MTT dyeing)", "assay_type": "cell-based", "details": "5 μg/mL, P19 cells on 0.5% soft agar, 7 d, compared with DMSO control; FIG. 4", "description": "5 g agar was weighed and placed in a flask, then 100 mL of ultra-pure water was added, and the mixture was mixed well, sealed, and then autoclaved for 30 min. In a super clean bench, 9 mL of pre-heated (50-60° C.) serum-free DMEM culture medium was pipetted into a 10 mL centrifuge tube, then 1 mL of uncooled 5% agar was added, and rapidly mixed well with a pipette, resulting in 0.5% agar. 1 mL of 0.5% agar was pipetted into one well of a 6-well plate and cooled at room temperature for 20-30 min, resulting in a 0.5% soft agar culture medium.\nIn the super clean bench, D-Hanks was gently added to the surface of the soft agar culture medium, and the D-Hanks was discarded after being gently shaken 2 to 3 times. Cleaning was repeated once. The mouse teratoma cells P19 were gently inoculated on the surface of the soft agar culture medium at a cell density of 4×10^5 cells/well. After the cell inoculation, ethyl p-methoxycinnamate was added to 1 mL of DMEM culture medium containing 10% fetal calf serum, mixed well, and then gently added to the experimental group. A final concentration of ethyl p-methoxycinnamate was 5 μg/mL. The control group was treated with DMSO. […]"}, "[2]": {"system": "Oct4 mRNA", "assay": "Oct4 mRNA expression by RT-PCR and agarose gel electrophoresis in P19 cells", "assay_type": "cell-based, mouse", "details": "5 μg/mL, 12 h, DMSO control, FIG. 2", "description": "P19 cells were inoculated in a 6-well cell culture plate at a density of 2×10^5 cells/well. After 24 h, DMEM culture medium containing 3% serum were used for replacement. Ethyl p-methoxycinnamate was added to the experimental group to render its final concentration at 5 μg/mL, and a control group was treated with DMSO. After 12 h, the 6-well plate overgrown with monolayer cells was taken out from a cell incubator, and the cells were washed 3 times with pre-cooled PBS. 1 mL of a pre-cooled Trizol solution was added. After vigorous pipetting, the mixture was transferred to an EP tube and allowed to stand at room temperature for 5 min. Then 200 μL of chloroform was added to the mixture, vigorously mixed well for 15 s, and the mixture containing chloroform was allowed to stand at room temperature for 2 min and centrifuged at 12000 rpm at 4° C. for 15 min. An upper aqueous phase was pipetted into another EP tube, and an equal volume of pre-cooled isopropanol was added, and the mixture was inverted several times and allowed to stand at room temperature for 10 min to precipitate RNA. After centrifugation at 12000 rpm for 10 min, the supernatant was discarded, and to the precipitate was added 1 mL of 75% ethanol (prepared by 0.1% DEPC water) for washing, followed by centrifugation at 7500 rpm for 5 min (this step was repeated once). The supernatant was discarded. […]"}}, "data": [{"compound": "CCOC(=O)C=Cc1ccc(OC)cc1", "note": "[ethyl p-methoxycinnamate]", "values": [{"measurement": "formation of microspheres of suspendedly cultured stem cells", "setting": "[1]", "value": "the P19 cells can form a higher amount of larger and more typical microspheres"}, {"measurement": "effect on the expression of Oct4 mRNA", "setting": "[2]", "value": "can significantly promote the expression of Oct4 mRNA"}]}]}
